Assay results from patent US7910594B2 (priority 2002, dated 2011).
“And” between values parts separate entries of the source, which are not always exact repeats. Equal entries are not always repeated.

Key:
subcutaneous M109 tumors [1] = test: subcutaneous M109 tumors treated with TAXOL with or without EC72; type: in vivo, Balb/c mice
Description: The protocol described in Example 5 was followed except that animals were injected i.v. at the beginning of the treatment period and were injected i.p. later in the treatment period.
Tumor volumes were calculated using the equation V=a×b^2/2, where “a” is the length of the tumor and “b” is the width expressed in millimeters. The tumors were measured using calipers.

[2] = toxicity of TAXOL / EC72 regimens (weight loss, blood chemistry, tissue pathology); type: in vivo, Balb/c mice; parameters: key to Liver: mice with Degeneration / Liver: grade of Degeneration: “0.5” = Occasionally present; “1” = Mild; “2” = Moderate; “3” = Marked
From the text: The toxicity of each tested regimen was also monitored by measuring weight loss, blood chemistry, and tissue pathology.

M109 tumor = test: survival of intraperitoneal M109 tumor-bearing mice; type: in vivo, Balb/c mice; conditions: for increase in lifespan (ILS): 1800 mmoles/kg i.p. once daily beginning on day 5 after tumor cell inoculation, FIG. 2
Description: (§1) The effectiveness of EC72 for promoting survival of tumor-bearing mice was evaluated in vivo using M109 tumor-bearing Balb/c mice. There were two goals of this study: i) to determine if daily intraperitoneal treatment with EC72 could prolong the lives of folate receptor-positive tumor-bearing mice beyond what mitomycin C could do when tested under an identical dosing regimen, and ii) to examine the pathological effects of EC72 treatment on normal tissues, including kidney tissue which is folate receptor-positive tissue. Although most normal tissues contain very low levels of folate receptor, the proximal tubules of the kidney express appreciable numbers of folate receptors. Thus, the in vivo evaluation of EC72 also enabled evaluation of the extent of kidney-specific damage caused by the systemic administration of folate-mitomycin conjugates.
Balb/c mice (5 mice/group) were given an intraperitoneal injection with 1×10^6 M109 cells. The mice were then given an intraperitoneal injection once daily with […]/kg of EC72 or mitomycin C (control mice were injected with PBS) beginning on day 5 after tumor cell innoculation (ILS=increased life span (i.e., median survival time)).
Thus, a group of animals were given intraperitoneal injections of EC72 plus a 10-fold excess of free folic acid.

[3] = for myelosuppression / kidney damage: M109 tumor-bearing mice, daily i.p. treatment
Description: as §1
Major organs were also collected in both the EC72 and mitomycin C-treated animals (following euthanasia), and they were sent to an independent pathologist for examination.

[4] = system: folate receptor-positive KB cells; test: in vitro cytotoxicity assay (bromodeoxyuridine-based ELISA); type: cell-based
Description: A compound denominated as EC72 (see scheme 1) was evaluated using an in vitro cytotoxicity assay that predicts the ability of the drug to inhibit the growth of folate receptor-positive KB cells. This compound comprises a folate analog linked to mitomycin C prepared according to the protocol depicted in scheme 2. The KB cells were exposed for 15 minutes at 37° C. to the indicated concentrations of EC72, free mitomyicn C (drug #1), or to EC72 and at least a 100-fold excess of folic acid. The cells were then rinsed once with fresh culture medium and incubated in fresh culture medium for 72 hours at 37° C. Cell viability was assessed using a bromodeoxyuridine-based ELISA assay.

subcutaneous M109 tumors [5] = test: growth of subcutaneous M109 tumors, EC72 i.v. then i.p.; type: in vivo, Balb/c mice; conditions: 1800 nmoles/kg qd×5 for six weeks from day 4, i.v. (12 injections) then i.p.; FIG. 4
Description: The anti-tumor activity of EC72 when administered intravenously (i.v.) to tumor-bearing animals, was evaluated in Balb/c mice bearing subcutaneous M109 tumors. Thus, a protocol similar to that described in Example 3 was followed except that the compounds were administered i.v. (described below) and the tumors were subcutaneous. Four days post tumor inoculation in the subcutis of the right axilla, mice were injected i.v. qd×5 for six weeks with 1800 nmoles/kg of EC72.
Tumor growth was determined at 2-day intervals in each treatment group until the tumors grew to at least 1500 mm3. The tail veins became excessively bruised and inaccessible after 12 i.v. injections so dosing was continued i.p. following the same qd×5 schedule. […] Thus, EC72 may not have reached the distal subcutaneous tumor efficiently following i.p. administration of EC72, a limitation not encountered when EC72 was administered i.v. during the initial phase of the therapy.

subcutaneous M109 tumors [6] = test: survival of mice bearing subcutaneous M109 tumors, delayed start of EC72 treatment; type: in vivo, Balb/c mice; conditions: for Median Survival: EC72 1800 nmol/kg i.v. qd×5 for 4 weeks
Description: The protocol described in Example 4 was followed except that mice were injected i.v. throughout the treatment period and were treated with EC72 for 4 weeks. Balb/c mice (n=5) were injected subcutaneously in the subcutis of the right axilla with 1×10^6 M109 cells and were treated qd×5 for 4 weeks with 1800 nmol/kg of EC72. EC72 was administered i.v. beginning on the designated day post tumor cell inoculation (PTI; see Table 3). Animal survival was monitored daily, and mice showing a complete response were those that were tumor-free at day 60 PTI.

[7] = biological target: T1, folate receptors (FRs) on KB cells (Homo sapiens, UniProt P15328); test: relative affinity assay (3H-folic acid displacement); type: binding; conditions: 100 nM 3H-folic acid, 15 min on ice, folic acid set to 1, FIG. 9
T1 construct: FR-positive KB cells were gently trypsinized; endogenous in cells; host or cells: KB cells
T1 sequence (P15328 25-234): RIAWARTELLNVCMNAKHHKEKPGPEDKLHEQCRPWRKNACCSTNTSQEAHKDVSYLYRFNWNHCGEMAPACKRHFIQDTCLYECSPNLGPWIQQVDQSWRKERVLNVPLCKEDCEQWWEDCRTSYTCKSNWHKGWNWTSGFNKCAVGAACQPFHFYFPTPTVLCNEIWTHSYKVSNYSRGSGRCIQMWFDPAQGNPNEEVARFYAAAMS
Description: The affinity of EC72 for folate receptors (FRs) relative to folate was determined according to a previously described method (Westerhof, G. R., J. H. Schomagel, et al. (1995) Mol. Pharm. 48: 459-471) with slight modification. Briefly, FR-positive KB cells were gently trypsinized in 0.25% trypsin in phosphate-buffered saline (PBS) at room temperature for 3 minutes and then diluted in folate-free RPMI (FFRPMI) containing 10% heat-inactivated fetal calf serum (HIFCS). Following a 5 min 800×g spin and one PBS wash, the final cell pellet was suspended in FFRPMI 1640 (no serum). Cells were incubated for 15 min on ice with 100 nM ^3H-folic acid in the absence and presence of increasing concentrations of EC72 or folate. Samples were centrifuged at 10,000×g for 5 min, and then the cell pellets were suspended in buffer, transferred to individual vials containing 5 mL of scintillation cocktail, and then counted for radioactivity. Negative control tubes contained only the ^3H-folic acid in FFRPMI (no competitor). Positive control tubes contained a final concentration of 1 mM folic acid, and CPMs measured in these samples (representing non-specific binding of label) were subtracted from all samples.

FR-positive KB cells = test: in vitro dose response, 3H-thymidine incorporation (DNA synthesis); type: cell-based; conditions: 0.1 mM folic acid (competitor)
Description: KB cells were seeded in 12-well Falcon plates and allowed to form near-confluent monolayers overnight. Following one rinse with 1 mL of fresh FFRPMI/HIFCS, each well received 0.5 mL of FFRPMI/HIFCS containing increasing concentrations of EC72 in the presence of absence of 0.1 mM folic acid (competitor). Cells were incubated for 15 min at 37° C. and then rinsed four times with 0.5 mL of FFRPMI/HIFCS. 0.5 mL of fresh FFRPMI/HIFCS was then added to each well, and cells were chased for a total of 72 h at 37° C. Two hours before the end of the incubation, media was replaced in each well with 0.5 mL FFRPMI/HIFCS containing 5 μCi of ^3H-thymidine. Monolayers were then washed 3 times with 0.5 mL of PBS and then precipitated with 1 ml of 10% cold trichloroacetic acid. The trichloroacetic acid solution was collected and discarded, and precipitated material was sequentially dissolved in 0.5 mL 0.25 N NaOH and 1% sodium dodecyl sulfate for 15 min at room temperature. Samples were then counted for radioactivity using a Packard gamma counter. Final tabulated values were expressed as a percentage of radioactivity incorporated into untreated cell samples.

[8] = system: Folate receptor-positive M109 P0 tumor cells; test: in vivo dose response, intraperitoneal M109 tumor; parameters: species or system mice (female Balb/C strain)
Description: Six to seven week-old mice (female Balb/C strain) were obtained from Harlan, Inc., Indianapolis, Ind. The mice were maintained on Harlan's folate-free chow for a total of three weeks prior to the onset of and during this experiment. Folate receptor-positive M109 P0 tumor cells (0.5×10^6 cells per animal) were inoculated in the upper peritoneal cavity 4 days prior to the onset of dosing. The formulations indicated in FIG. 11 were dosed intraperitoneally qd×30 starting on day 4 post tumor inoculation, and animal survival was monitored daily.

[9] = system: Folate receptor-negative 4T-1 tumor; test: in vivo activity on folate receptor-negative tumor; parameters: species or system mice (female Balb/C strain); conditions: i.p. qd×30 from day 4 post tumor inoculation; FIG. 12
Description: Six to seven week-old mice (female Balb/C strain) were obtained from Harlan, Inc., Indianapolis, Ind. The mice were maintained on Harlan's folate-free chow for a total of three weeks prior to the onset of and during this experiment. Folate receptor-negative 4T-1 tumor cells (1×10^6 cells per animal) were inoculated in the subcutis of the right axilla. The formulations indicated in FIG. 12 were dosed intraperitoneally qd×30 starting on day 4 post tumor inoculation, and tumor volume as well as animal survival were monitored daily. EC72 had no activity against a subcutaneous folate-receptor-negative 4T-1 tumor.

[10] = Taxol 15 mg/kg with EC72 0 or 1800 nmol/kg, 6 mice/cohort
[11] = Taxol 15 mg/kg with EC72 0 or 1800 nmol/kg, 6 mice/cohort, listed as Taxol
[12] = tissue pathology, TAXOL 15 mg/kg, n = 6 mice

SMILES: CC(=O)O[C@H]1C(=O)[C@@]2(C)[C@H]([C@H](OC(=O)c3ccccc3)[C@]3(O)C[C@H](OC(=O)[C@H](O)[C@@H](NC(=O)c4ccccc4)c4ccccc4)C(C)=C1C3(C)C)[C@]1(OC(C)=O)CO[C@@H]1C[C@@H]2O [TAXOL®, paclitaxel]
- day PTI until which tumors failed to grow (subcutaneous M109 tumors [1]; TAXOL 15 mg/kg, from day 12 PTI): 21 day PTI
- log cell kill (LCK) (subcutaneous M109 tumors [1]; TAXOL 20 mg/kg i.v. with or without EC72 1800 nmol/kg qd×5 for 4 weeks, from day 12 PTI, FIG. 7): 1.3
- day PTI until which tumors failed to grow (subcutaneous M109 tumors [1]; TAXOL 20 mg/kg, from day 12 PTI): 29 day PTI
- long term survivors (subcutaneous M109 tumors [1]; TAXOL 20 mg/kg, n=5): none of the 5 mice
- CR (complete response) (subcutaneous M109 tumors [1]; [10]): 2 of the 6
- NR (no response) (subcutaneous M109 tumors [1]; [10]): 0
- PR (partial response) (subcutaneous M109 tumors [1]; [10]): 4 of the 6
- CR (complete response) (subcutaneous M109 tumors [1]; [11]): 2
- PR (partial response) (subcutaneous M109 tumors [1]; [11]): 4
- Log Cell Kill (LCK) (subcutaneous M109 tumors [1]; Taxol 15 mg/kg with EC72 0 or 1800 nmol/kg, from day 12 PTI, 6 mice/cohort, FIG. 8): 0.6
- appearance and body weight during dosing ([2]; TAXOL 20 mg/kg with or without EC72 1800 nmol/kg): appeared sick, experienced weight loss
- Bone: mice Normal [2, 12]: 6
- Heart: mice Normal [2, 12]: 6
- Kidney: mice Normal [2, 12]: 6
- Liver: mice Normal [2, 12]: 5
- Spleen: mice Normal [2, 12]: 6
- Liver: grade of Degeneration ([2]; tissue pathology, grade in brackets): 1(1)
- Liver: mice with Degeneration ([2]; tissue pathology, number before the bracket, n = 6 mice): 1(1)

SMILES: CO[C@@]12[C@H](COC(N)=O)C3=C(C(=O)C(C)=C(N)C3=O)N1C[C@@H]1N[C@@H]12 [mitomycin C, reference compound]
- increase in lifespan (ILS) (M109 tumor): 39%
- increased life span (median survival time) over PBS control group (M109 tumor; repeat experiment, 30 daily i.p. injections, FIG. 3): ~25%
- myelosuppression / kidney damage [3]: extensive myelosuppression
- cause of death of treated animals ([3]; mouse, in vivo, ip): died from apparent mitomycin C-related side effects

SMILES: CO[C@@]12[C@H](COC(N)=O)C3=C(C(=O)C(C)=C(NCCSSC[C@H](NC(=O)CC[C@H](NC(=O)c4ccc(NCc5cnc6nc(N)[nH]c(=O)c6n5)cc4)C(=O)O)C(=O)O)C3=O)N1C[C@@H]1N[C@@H]12 [EC72]
- cytotoxicity compared with free mitomycin C ([4]; 15 minutes exposure at 37° C., 72 hours chase, FIG. 1): equal to that of free mitomycin C
- cytotoxicity in the presence of excess free folic acid ([4]; at least a 100-fold excess of folic acid): blocked
- increase in lifespan (ILS) (M109 tumor): 178%
- animals tumor-free by day 70 post tumor cell inoculation (M109 tumor; 30 daily i.p. injections): 1 of 4
- outcome of group coinjected with folic acid (M109 tumor; EC72 plus a 10-fold excess of free folic acid): all mice in this group eventually died from the tumor burden
- myelosuppression / kidney damage [3]: no evidence of myelosuppression or kidney damage
- blood-urea-nitrogen and creatine levels ([3]; following 30 consecutive daily injections): normal
- effect on growth of subcutaneous M109 tumor (subcutaneous M109 tumors [5]): effective in delaying the growth of the M109 tumor
- Median Survival (subcutaneous M109 tumors [6]; initiation PTI 1): 56 days
- Median Survival (subcutaneous M109 tumors [6]; initiation PTI 3): 54 days
- Median Survival (subcutaneous M109 tumors [6]; initiation PTI 7): 28 days
- Median Survival (subcutaneous M109 tumors [6]; initiation PTI 12): 26 days
- anti-tumor response of EC72 alone (subcutaneous M109 tumors [6]; EC72 treatment initiated 12 days PTI, subcutaneous tumor model): failed to produce an anti-tumor response
- % ILS (subcutaneous M109 tumors [6]; initiation PTI 1): 133%
- Complete Responses (tumor-free at day 60 PTI) (subcutaneous M109 tumors [6]; initiation PTI 1, n = 5): 2 of 5 and 2
- Partial Responses (subcutaneous M109 tumors [6]; initiation PTI 1, n = 5): 3 of 5 and 3
- % ILS (subcutaneous M109 tumors [6]; initiation PTI 3): 125%
- Complete Responses (tumor-free at day 60 PTI) (subcutaneous M109 tumors [6]; initiation PTI 3, n = 5): 0
- Partial Responses (subcutaneous M109 tumors [6]; initiation PTI 3, n = 5): 5
- % ILS (subcutaneous M109 tumors [6]; initiation PTI 7): 17%
- Complete Responses (tumor-free at day 60 PTI) (subcutaneous M109 tumors [6]; initiation PTI 7, n = 5): 0
- Partial Responses (subcutaneous M109 tumors [6]; initiation PTI 7, n = 5): 5
- % ILS (subcutaneous M109 tumors [6]; initiation PTI 12): 8%
- Complete Responses (tumor-free at day 60 PTI) (subcutaneous M109 tumors [6]; initiation PTI 12, n = 5): 0 of 5 and 0
- Partial Responses (subcutaneous M109 tumors [6]; initiation PTI 12, n = 5): 5
- relative affinity for the folate receptor [7]: 0.59
- DNA synthesis inhibition in the presence of excess free folic acid (FR-positive KB cells): effectively blocked any DNA synthesis inhibition
- animals showing a complete response ([8]; 1800 nmol/kg i.p. qd×30): 1 of 4
- increase in lifespan ([8]; 1800 nmol/kg i.p. qd×30 from day 4 post tumor inoculation): 240%
- dose dependence of activity in M109 tumor-bearing mice ([8]; 100, 400, 1800 nmol/kg i.p. qd×30 from day 4, FIG. 11): dose-dependent activity
- activity against subcutaneous folate-receptor-negative 4T-1 tumor [9]: no activity
